According to US11141488B2, “Compositions comprising biodegradable copolymers for prolonged local release of an antibiotic” (DEXCEL PHARMA TECHNOLOGIES LTD., priority 2017, dated 2021):
Where two headings read alike, the source gives them in different places.

What was measured:
[1] = Local and systemic gentamicin levels after single intramuscular injection in rabbits; assay type: in vivo, New Zealand White (NZW) rabbits; settings: rabbit muscle
Experimental: Prior to injection, a skin incision was made in order to expose the muscle. The site of injection was marked by a non-absorbable suture at the upper layer of the muscle. […] Following injection, the skin was closed using surgical clips. The procedure was performed under general anesthesia. Animals were clinically observed for up to 8 weeks post-dosing, if applicable.
Tissue collection was performed by resecting the right paravertebral muscle, transversally slicing into ˜1 cm thick serial sections (total of 7 serial sections), when the injection site was located at the core center of the central section. […] At the injection site, one sample ( ? ) was taken.

[2] = rat skin tissue
Experimental: The site of injection was located at the right mid trunk area close to the spinal cord of the animals. The fur covering the flank and dorsal areas was removed by close clipping using an electric clipper up to 96 hours prior to dosing. Injections were performed using 18-19 G needle. The procedure was performed under general anesthesia. Blood samples were collected at 15 minutes, 30 minutes, 45 minutes, 1 hour, 1.5 hours, 2 hours, 4 hours, 6 hours, 8 hours, 24 hours, 48 hours, 72 hours, 1 week, 2 weeks, 3 weeks, 4 weeks, 6 weeks, and 8 weeks.
Blood samples were processed by centrifugation (3,000 G for 15 minutes at room temperature). Following centrifugation, plasma was removed into plastic tubes, followed by freezing using liquid nitrogen to (−70)-(−80)° C. for subsequent analysis.
Tissue collection was performed following removal of the dorsal trunk area by close clipping using an electrical clipper, if needed. The skin at the dorsal site of the animal was removed and pinned to a cork board. […] The injection site A is marked by a circular area of 1 cm in diameter (1×0.8 cm diameter sample). Circular strips B, C, and D each indicate 0.5 cm strips in width encircling circle (at least 4 samples were taken from each strip).
Thereafter, the samples were injected into a LC-MS/MS system (3 μl for samples at a concentration range of 2.5-170 μg/ml and 20 μl for samples at a concentration range of 0.075-2.5 μg/ml). […] Thereafter, 20 μl of the samples were injected into a LC-MS/MS system.
Sample concentrations were obtained by interpolation from the run defined calibration curve. The raw data was processed using AB SCIEX 1.5.1 software.

[3] = parenteral administration, levels exceeded for prolonged periods of time; cited from earlier work

Substance: gentamicin
- local concentration of gentamicin, area B ([1]; area B of FIG. 4, 24 hours after single 0.2 ml IM injection of RA:SA (70:30) copolymer with 20 wt % gentamicin sulfate): 46 µg/mL
- local concentration of gentamicin, area C ([1]; area C of FIG. 4, 24 hours after single 0.2 ml IM injection of RA:SA (70:30) copolymer with 20 wt % gentamicin sulfate): 3 µg/mL
- local concentration of gentamicin, area D ([1]; area D of FIG. 4, 24 hours after single 0.2 ml IM injection of RA:SA (70:30) copolymer with 20 wt % gentamicin sulfate): 6 µg/mL
- local concentration of gentamicin, area A ([1]; injection site, 24 hours after single 0.2 ml IM injection of RA:SA (70:30) copolymer with 20 wt % gentamicin sulfate): 765 µg/mL
- local concentration of gentamicin, area A ([2]; injection site, 24 hours after single 0.2 ml SC injection of RA:SA (70:30) copolymer with 20 wt % gentamicin sulfate): 362 µg/mL
- local concentration of gentamicin, area B ([2]; strip B of FIG. 8, 24 hours after single 0.2 ml SC injection of RA:SA (70:30) copolymer with 20 wt % gentamicin sulfate): 218 µg/mL
- local concentration of gentamicin, area C ([2]; strip C of FIG. 8, 24 hours after single 0.2 ml SC injection of RA:SA (70:30) copolymer with 20 wt % gentamicin sulfate): 43 µg/mL
- local concentration of gentamicin, area D ([2]; strip D of FIG. 8, 24 hours after single 0.2 ml SC injection of RA:SA (70:30) copolymer with 20 wt % gentamicin sulfate): 31 µg/mL
- systemic levels above which ototoxicity and nephrotoxicity are induced [3]: 10 to 12 µg/mL
